21 molecules from ChEMBL document CHEMBL5244229, “Thiazole-containing compounds as therapeutic targets for cancer therapy” (Eur J Med Chem, 2020) can be followed below.

The structures appear in SMILES notation. Converted amounts (≈) assume the structure as drawn.

The subject of assay [1] is HT-29. Description: Cytotoxicity against human HT-29 cells. Type of assay: functional, cell-based.
For assay [2], the system named is SMMC-7721. Description: Cytotoxicity against human SMMC-7721 cells. Type of assay: functional, cell-based.
The subject of assay [3] is NCI-H460. Description: Cytotoxicity against human NCI-H460 cells. Type of assay: functional, cell-based.
Assay [4] in a line: Cytotoxicity against human U-87 MG cells. Type of assay: functional, cell-based, U-87MG ATCC.
In assay [5] the test system is A549. Description: Antiproliferative activity against human A549 cells. Type of assay: functional, cell-based.
The subject of assay [6] is MKN-45. Description: Cytotoxicity against human MKN-45 cells. The assay is classed as functional, cell-based.
Assay [7] has as its system T47D. Description: Cytotoxicity against human T47D cells. The assay is classed as functional, cell-based.
Assay [8] has as its system SF-268. The experiment in a line: Antitumor activity against human SF-268 cells. Type of assay: functional.
The subject of assay [9] is MCF7. The experiment in a line: Cytotoxicity against human MCF7 cells. The assay is classed as functional, cell-based.
The test system of assay [10] is A549. Description: Anticancer activity against human A549 cells at 5 microg/ml relative to control. The assay is classed as functional. To be noted: dose 5 µg/ml.
Assay [11] concerns NCI-H460. Description: Antitumor activity against human NCI-H460 cells. The assay is classed as functional, cell-based.
The test system of assay [12] is Panel NCI-60 (60 carcinoma cell lines). Description: Antiproliferative activity against human Panel NCI-60 (60 carcinoma cell lines) assessed as cell growth inhibition. Type of assay: functional.
For assay [13], the system named is MCF7. Description: Anticancer activity against human MCF7 cells. The assay is classed as functional, cell-based.
Assay [14] has as its system A549. The experiment in a line: Anticancer activity against human A549 cells. Type of assay: functional, cell-based.
The target in assay [15] is Vascular endothelial growth factor receptor 2 (Homo sapiens) (UniProt P35968). The experiment in a line: Inhibition of VEGFR2 (unknown origin) at 20 uM using 5-FAM-KKKKEEIYFFF-CONH2 as substrate incubated for 1 hr in presence of ATP by kinase glo-assay relative to control.
Chain of Vascular endothelial growth factor receptor 2 (Homo sapiens) (P35968 whole entry): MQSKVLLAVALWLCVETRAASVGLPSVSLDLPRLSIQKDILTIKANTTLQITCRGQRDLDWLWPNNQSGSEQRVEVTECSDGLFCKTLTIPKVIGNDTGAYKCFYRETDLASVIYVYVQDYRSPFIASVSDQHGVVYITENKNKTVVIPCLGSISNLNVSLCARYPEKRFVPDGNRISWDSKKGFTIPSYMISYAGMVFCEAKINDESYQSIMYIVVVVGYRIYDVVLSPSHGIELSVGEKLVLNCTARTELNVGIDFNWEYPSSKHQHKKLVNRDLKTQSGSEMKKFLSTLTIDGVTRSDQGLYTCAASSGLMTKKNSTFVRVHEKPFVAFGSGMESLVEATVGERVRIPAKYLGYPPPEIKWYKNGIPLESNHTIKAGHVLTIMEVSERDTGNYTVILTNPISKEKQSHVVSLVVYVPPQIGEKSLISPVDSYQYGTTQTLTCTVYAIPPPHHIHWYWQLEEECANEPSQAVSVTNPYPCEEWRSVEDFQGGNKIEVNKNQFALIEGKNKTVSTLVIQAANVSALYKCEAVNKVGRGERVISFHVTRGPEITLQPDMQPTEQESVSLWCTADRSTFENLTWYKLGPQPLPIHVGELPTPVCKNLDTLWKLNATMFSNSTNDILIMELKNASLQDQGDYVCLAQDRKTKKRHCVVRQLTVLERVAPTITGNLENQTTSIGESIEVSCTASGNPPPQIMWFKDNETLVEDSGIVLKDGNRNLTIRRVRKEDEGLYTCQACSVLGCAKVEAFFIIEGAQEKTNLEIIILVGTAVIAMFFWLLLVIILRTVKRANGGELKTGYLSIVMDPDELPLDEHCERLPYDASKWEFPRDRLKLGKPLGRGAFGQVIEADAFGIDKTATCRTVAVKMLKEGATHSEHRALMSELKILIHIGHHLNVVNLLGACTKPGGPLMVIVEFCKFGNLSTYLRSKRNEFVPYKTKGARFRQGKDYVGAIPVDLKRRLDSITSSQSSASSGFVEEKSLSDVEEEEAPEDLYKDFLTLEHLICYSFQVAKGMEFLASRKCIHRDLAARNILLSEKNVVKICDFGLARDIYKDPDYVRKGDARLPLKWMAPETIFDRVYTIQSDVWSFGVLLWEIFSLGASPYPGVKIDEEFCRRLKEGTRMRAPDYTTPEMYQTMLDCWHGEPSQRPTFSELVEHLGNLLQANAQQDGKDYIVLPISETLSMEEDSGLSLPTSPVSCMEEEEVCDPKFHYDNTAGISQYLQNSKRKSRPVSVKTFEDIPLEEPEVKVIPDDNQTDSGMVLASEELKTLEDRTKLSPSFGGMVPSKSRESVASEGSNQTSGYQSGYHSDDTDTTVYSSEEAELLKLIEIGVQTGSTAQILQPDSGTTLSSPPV
Assay [16] relates to PC-3. The experiment in a line: Anticancer activity against human PC-3 cells. Type of assay: functional, cell-based.
Assay [17] deals with HepG2. Description: Anticancer activity against human HepG2 cells. Type of assay: functional, cell-based.
In assay [18] the test system is K562. The experiment in a line: Anticancer activity against human K562 cells. The assay is classed as functional, cell-based.
Assay [19] deals with HCT-116. The experiment in a line: Anticancer activity against human HCT-116 cells. Type of assay: functional, cell-based.
The subject of assay [20] is HepG2. Description: Cytotoxicity against human HepG2 cells. Type of assay: functional, cell-based.
Assay [21] has as its system HepG2. Description: Cytotoxicity against human HepG2 cells assessed as reduction in cell viability measured after 48 hrs by MTS assay. Type of assay: functional, cell-based. The following applies: HepG2, 48 h.
Assay [22] can be described thus: Antiproliferative activity against human A375P cells. The assay is classed as functional, cell-based.
The subject of assay [23] is HepG2. Description: Cytotoxicity against human HepG2 cells assessed as inhibition of cell growth incubated for 48 hrs by MTT assay. Type of assay: functional, cell-based. The following applies: HepG2, 48 h.
For assay [24], the system named is MDA-MB-231. The experiment in a line: Cytotoxicity against human MDA-MB-231 cells assessed as inhibition of cell growth incubated for 48 hrs by MTT assay. Type of assay: functional, cell-based. To be noted: MDA-MB-231, 48 h.
For assay [25], the system named is Jurkat. Description: Antiproliferative activity against human Jurkat cells assessed as reduction in cell viability incubated for 2 days by MTT assay. The following applies: 48 h. The assay is classed as functional, cell-based.
Assay [26] deals with MDA-MB-231. Description: Antiproliferative activity against human MDA-MB-231 cells assessed as reduction in cell viability incubated for 2 days by MTT assay. The assay is classed as functional, cell-based. The following applies: MDA-MB-231, 48 h.
The test system of assay [27] is MCF7. The experiment in a line: Cytotoxicity against human MCF7 cells assessed as reduction in cell viability by MTT assay. Type of assay: functional, cell-based.
The subject of assay [28] is MDA-MB-231. Description: Cytotoxicity against human MDA-MB-231 cells assessed as reduction in cell viability by MTT assay. The assay is classed as functional, cell-based.
Assay [29] relates to HeLa. Description: Cytotoxicity against human HeLa cells assessed as reduction in cell viability by MTT assay. Type of assay: functional, cell-based.
Assay [30] concerns HCT-116. Description: Cytotoxicity against human HCT-116 cells assessed as reduction in cell viability by MTT assay. The assay is classed as functional, cell-based.
The subject of assay [31] is MDA-MB-435. The experiment in a line: Cytotoxicity against human MDA-MB-435 cells. Type of assay: functional, cell-based.
The test system of assay [32] is SF-295. Description: Cytotoxicity against human SF-295 cells. Type of assay: functional, cell-based.
Assay [33] concerns HL-60. Description: Cytotoxicity against human HL-60 cells. The assay is classed as functional, cell-based.
Assay [34] deals with MCF7. The experiment in a line: Antiproliferative activity against human MCF7 cells assessed as reduction in cell viability incubated for 24 hrs by Celltiter-Glo cell viability assay. The assay is classed as functional, cell-based. To be noted: MCF7, 24 h.
Assay [35] concerns MV4-11. The experiment in a line: Anticancer activity against human MV4-11 cells. The assay is classed as functional, cell-based.
In assay [36] the test system is HeLa. Description: Cytotoxicity against human HeLa cells. Type of assay: functional, cell-based.
For assay [37], the system named is MG-63. The experiment in a line: Cytotoxicity against human MG-63 cells. The assay is classed as functional, cell-based.
Assay [38] is described as follows: Anticancer activity against human PBMC cells. Type of assay: functional, cell-based.

Regarding `CCOC(=O)/C(C(C)=O)=C1/SC=C(n2c(CC#N)nc3ccccc32)N1c1ccccc1`, the IC50 in assay [1], in assay [2], in [3], in [4], in assay [5] and in assay [6] was 0.23 µM in each case.

In turn, `Cc1ccc(Oc2ccc(-c3csc(N)n3)cc2)cc1` had an IC50 in assay [7] of 0.54 µM.

The molecule `N#CC(C#N)=C1SC(n2nc(O)cc2N)=CN1c1ccccc1` came in with a GI50 in assay [8] of 0.01 µM.

With `O=c1[nH]cc(F)c(=O)[nH]1` [FLUOROURACIL], the IC50 in assay [9] stood at 5.5 µg/mL. For the same molecule, the Activity in assay [10] is recorded as 57%.

With `CCn1c(=O)/c(=C2\Sc3ccccc3N2C)s/c1=C\c1cccc[n+]1CC`, the IC50 in assay [11] amounted to 1.3 µM.

Turning to `Cn1cc(-c2nc(-c3c[nH]c4ccccc34)cs2)c2cccnc21`, the GI50 in assay [12] was determined as 0.04 µM.

As to `O=C(NNc1nc(-c2ccc3ccccc3c2)cs1)N1N=C(c2ccccc2)CC1c1ccc(Cl)cc1` (stereo unspecified), the IC50 in [13] and in [14] was 5 µM in each case.

Consider `Cn1cc(-c2csc(-c3cn(C)c4ncccc34)n2)c2ccccc21`, for which the concentration for 50% growth inhibition (GI50) in [12] was determined as 0.03 µM.

As for `O=C(Cc1csc2nc(-c3ccccc3)cn12)Nc1ccc(N2CCOCC2)nc1`, in [15], the inhibition is 3.76%.

As to `COc1cccc2c1C(=O)c1c(O)c3c(c(O)c1C2=O)C[C@@](O)(C(=O)CO)C[C@@H]3O[C@H]1C[C@H](N)[C@H](O)[C@H](C)O1` [DOXORUBICIN], the IC50 in assay [16] amounted to 0.912 µM; in [2] it was 0.23 µM; in [17], 11.6 µM; in assay [18] it was 2.3 µM; in [19], 0.18 µM; in assay [21], 0.72 µM. This molecule had a CC50 in assay [20] of 0.2 µM.

Turning to `CNC(=O)c1cc(Oc2ccc(NC(=O)Nc3ccc(Cl)c(C(F)(F)F)c3)cc2)ccn1` [SORAFENIB], the IC50 stood at 5.6 µM in [22] and 5.2 µM in assay [23].

On to `COc1ccc(CN2CCN(c3ccc(NC(=O)Cc4csc5nc(-c6ccc(Cl)cc6)cn45)cn3)CC2)cc1`, for which the IC50 in assay [24] came to 1.4 µM; in assay [23] it was 22.6 µM. In addition, the inhibition in [15] came out at 5.72%.

For `CCC[C@H](NS(=O)(=O)c1ccc(C)cc1)[C@]1(c2ccccc2Br)N=C(SCC)SC1=O`, the IC50 in assay [25] turned out to be 19 µM; in assay [26], 41 µM.

Consider `Nc1ccccc1C(=O)Nn1c(-c2ccc(Cl)cc2)cs/c1=N/c1ccc([N+](=O)[O-])cc1`, for which the IC50 in [27], in [28], in [29] and in assay [30] was 5.37 µM throughout.

For the molecule `Cc1ccc2[nH]cc3c(=O)n(-c4nc5ccccc5s4)nc-3c2c1`, the IC50 in assay [31], in assay [32] and in assay [33] was below 5 µg/mL in each case.

As to `O=S(=O)(Nc1ccc(-c2csc(N/N=C/c3ccc(N(CCCl)CCCl)cc3)n2)cc1)c1ccc(C(F)(F)F)cc1`, the IC50 in [34] came to 3.02 µg/mL (≈ 4.7 µM); in assay [35], 2.17 µM; in assay [19], 3.02 µg/mL.

For `CC(=O)C(C(C)=O)=C1SC(n2nc(O)cc2N)=CN1c1ccccc1`, the GI50 in assay [8] is 0.01 µM.

As for `O=c1c2c[nH]c3ccc(Br)cc3c-2nn1-c1nc2ccccc2s1`, the IC50 in assay [31], in [32] and in assay [33] was below 5 µg/mL each time.

As for `CC(=O)Nc1nc2ccc(NS(=O)(=O)c3ccc(C4CCCCC4)cc3)cc2s1`, the IC50 amounted to 36 µM in assay [9], 44 µM in assay [36] and 34 µM in [37].

Molecule `C/C(=N\Nc1nc(-c2ccc(Cl)cc2)cs1)c1ccccn1` displayed an IC50 in [38] above 30 µM.

In the case of `CC(=O)Nc1nc2ccc(NC(=O)Cc3c[nH]c4ccccc34)cc2s1`, the IC50 in assay [9], in assay [36] and in [37] was 48 µM each time.
